Assay results taken from patent US6809120B1, “Composition containing propargylamine for enhancing cancer therapy” (University of Saskatchewan Technologies Inc., priority 1998, dated 2004).

How the values were obtained:
[1] = tested on: rat2 cells; experiment: In vitro clonogenic cell survival assay, modulation of cisplatinum toxicity in normal cells (RATIO method); type: cell-based, rat; conditions: with cisplatinum
From the text: (§1) The protocol detailed below can be used for any normal/tumorigenic cell pair which will attach to plastic. Non-adherent lines (which includes most tumor cells, including NW16; consult references 5-10) require quantitation in soft agar. The present experiments are based on i) rat2 cells, a phenotypically normal, established rat fibroblast line and, ii) a tumorigenic derivative thereof, NW16 cells, which are rat2 cells transformed by a Fujinami sarcoma virus oncogene (see work of A. Pawson and P130^gag-fps). Rat2 and NW16 cells are maintained in a sub-confluent randomly-proliferating state in Dulbecco's modified minimal essential media with 10% (vol/vol) calf serum in plates incubated at 37° C. in a humidified CO2 (10%) incubator. All experiments reported rely on clonogenic cell survival assays (see references 4-6). Assays using rat2 (normal cells) were performed as follows: cells are exposed, in 10 cm culture dishes, to various drugs in media plus serum for varying lengths of time; seeding is at varying cell numbers, over log10 ranges, depending upon the degree of killing anticipated. [For the figure presented, incubation was for 72 hours prior to washing and assessment of clonogenic survival]. Both control and the experimental cultures are then gently washed, twice, with phosphate buffered saline, then once more with media minus serum, and then left in media plus serum, undisturbed until macroscopic colonies appear (7-9 days of incubation). The colonies are then fixed and stained with saturated methylene blue in 50% methanol and counted. The number of colonies, evaluated from 2 or more sets of duplicate cultures seeded at initial densities differing by factors of 10, are determined and converted to relative number of colonies, using the 0-hour control value as 1.0. Assays of NW16 cells were similar; however, because these cells are poorly adherent, following drug exposure, the washing procedure is modified, as is the quantitation of survivors step. In the latter case, quantitation requires plating the cells in soft agar (references 5-10).
A simplified presentation of the data, by the RATIO method, is show in FIG. 1. […] Ratios greater than unity indicate that the modulator has conferred a protective response, whereas ratios less than unity indicate an enhanced cell killing.

[2] = tested on: NW16 cells; experiment: In vitro clonogenic cell survival assay in soft agar, modulation of cisplatinum toxicity in tumorigenic cells (RATIO method); type: cell-based, rat; conditions: for enhanced killing of tumor cells in the presence of cisplatinum (result in words): in vitro fibroblast model
From the text: as §1, with “5-10). […]” for “5-10).”

[3] = tested on: normal femoral bone marrow cells (CFU-C/GM); experiment: In vivo assessment of anticancer drug modulators: relative cell survival of normal femoral bone marrow cells in P388-bearing mice; conditions: for toxicity of cisplatinum to the marrow cells in the presence of modulator / protection of normal bone marrow cells (result in words): DBA/2J mice with P388, ip; for toxicity of cisplatinum to the marrow cells in the presence of modulator: cisplatinum 0.2 mg plus modulator, 48 h; for protection of normal bone marrow cells (result in words): with cisplatinum 0.2 mg, Histidinol 5 mg/injection or R-2HPA 0.38 ug/injection x5, 48 h after treatment, FIG. 2
Description: (§2) Seven groups of mice were treated and assessed in this model as follows:
(§3) P388 cells (1 million) were injected into the tail vein of 22 female DBA/2J mice (Protocol first developed in reference 6 and 8). The mice were then randomly divided into the above groups and injected (ip) with drugs 96 h later. Doses were cisplatinum 0.2 mg at 0 hour; Histidinol 5 mg/injection and R-2HPA 0.38 ug/injection; administered 5 times at −2, 0, +2, +4, and +6 hours. 48 h after drug treatment, cells from the femurs of the mice were harvested, washed and plated (at log10 dilutions) so as to allow quantitative and specific relative cell survival values to be generated for the responses of normal femoral bone marrow cells (specifically, CFU-C/GM or granulocyte/macrophage precursor cells) and clonogenic P388 leukemia cells (8).

[4] = tested on: P388 leukemia cells; experiment: In vivo assessment of anticancer drug modulators: relative cell survival of clonogenic P388 leukemia cells in femurs of mice; conditions: DBA/2J mice; for increase of cisplatinum toxicity to the leukemia cells in the presence of modulator / enhanced killing by cisplatinum of P388 cells (result in words): ip, 48 h; for increase of cisplatinum toxicity to the leukemia cells in the presence of modulator: cisplatinum 0.2 mg plus modulator; for enhanced killing by cisplatinum of P388 cells (result in words): with cisplatinum 0.2 mg, Histidinol 5 mg/injection or R-2HPA 0.38 ug/injection x5, FIG. 3
Description: as §2, §3

## C#CCN(C)[C@H](C)CCCCC [R-2HMP, R-2-heptyl-methylpropargylamine]
[1]; FIG. 1
  protection of normal fibroblasts from cisplatinum (result in words): protect normal cells
[2]; NW16 tumorigenic cells, with cisplatinum, FIG. 1
  concentration at which the effect reverses to a protective effect in tumorigenic cells: ≥ 10^−9 M
[2]
  enhanced killing of tumor cells in the presence of cisplatinum (result in words): enhance the killing of tumor cells

## C#CCN[C@H](C)CCCCC [R-2HPA, R-2-heptyl-propargylamine]
[3]
  toxicity of cisplatinum to the marrow cells in the presence of modulator: essentially eliminated
  protection of normal bone marrow cells (result in words): effective at protecting normal bone marrow cells
[1]; FIG. 1
  protection of normal fibroblasts from cisplatinum (result in words): protect normal cells
[1]; FIG. 1, listed as R-2BPA
  protection of normal fibroblasts from cisplatinum (result in words): more potent
[4]
  increase of cisplatinum toxicity to the leukemia cells in the presence of modulator: ~1000 fold
  enhanced killing by cisplatinum of P388 cells (result in words): enhanced the killing by cisplatinum of P388 cells
[4]; R-2HPA 0.38 ug dose with cisplatinum
  therapeutic index between protection of healthy normal cells and killing of cancerous cells: about 50,000
[2]
  enhanced killing of tumor cells in the presence of cisplatinum (result in words): enhance the killing of tumor cells

## C#CCN(C)[C@@H](C)CCCCC [S-2HMP]
[1]; FIG. 1
  protection of normal fibroblasts from cisplatinum (result in words): inactive

## N.N.[Cl][Pt][Cl] [cisplatinum]
[3]; cisplatinum 0.2 mg ip alone, DBA/2J mice with P388, 48 h
  effectiveness at killing normal marrow cells relative to intrafemoral leukemia cells, drug used alone: about 100 times

## N[C@H](CO)Cc1c[nH]cn1 [histidinol, L-histidinol, reference compound]
[3]
  toxicity of cisplatinum to the marrow cells in the presence of modulator: essentially eliminated
  protection of normal bone marrow cells (result in words): effective at protecting normal bone marrow cells
[1]; FIG. 1
  protection of normal fibroblasts from cisplatinum (result in words): exhibits similar properties
[4]
  increase of cisplatinum toxicity to the leukemia cells in the presence of modulator: ~1000 fold
  enhanced killing by cisplatinum of P388 cells (result in words): enhanced the killing by cisplatinum of P388 cells

## R-deprenyl [reference compound]
[1]; FIG. 1
  protection of normal fibroblasts from cisplatinum (result in words): less efficacious
